Source: patent US20060292112A1, “Dendrimer-photosensitizer complexes for medical applications” (priority 1999, published 2006)

How the values were obtained:
Type in all cases: physicochemical
[1] = Fluorescence life time in ethanol; conditions: for Fluorescence life time (τFl): for Pheo 16 the longer component of a double exponential decay; for Fluorescence life time (τFl), second decay component: double exponential decay
[2] = Singlet oxygen quantum yield (photoinduced singlet oxygen) in ethanol; conditions: for singlet oxygen quantum yield (ΦA): in ethanol, before light exposure
Text: The quantum yield of the photoinduced singlet oxygen of Pheo (0.52) decreases to 0.05 for Pheo 16 (see Table 1).
(§1) They equal to the parameters of the free Pheo.

[3] = Fluorescence intensity in ethanol; conditions: versus fluorescence intensity of Pheo in ethanol
Text: The fluorescence spectra of al samples show nearly the same shape. However, the fluorescence intensity of Pheo 16 in ethanol is 50 times smaller than the fluorescence intensity of Pheo in ethanol (see FIG. 2).

[4] = Release of Pheo from dendrimer complex by light exposure (MALDI); conditions: after 30 min light exposure with UV lamp (~1 kJ)
Text: as §1
However, this process occurs only in the presence of oxygen. Presumably, the primary generated singlet oxygen caused the separation of the bonds between the dye molecules and the dendrimer.

Molecule | Fluorescence life time (τFl) [1] [ns] | singlet oxygen quantum yield (ΦA) [2] | Fluorescence life time (τFl) ([1]; listed as Pheo) [ns] | Fluorescence life time (τFl), second decay component ([1]; relation of amplitudes 2 to 1) [ns] | Fluorescence life time (τFl), second decay component ([1]; relation of amplitudes 2 to 1, listed as Pheo-16-dendrimer complex) [ns] | fluorescence lifetime, first component of double exponential decay ([1]; relation of amplitudes 2 to 1) [ns] | singlet oxygen quantum yield after light exposure ([2]; after light exposure of a 3 ml sample with 40 J and 514 nm) | fluorescence intensity relative to Pheo [3] [times smaller] | release of Pheo on light exposure [4]
C=Cc1c(C)c2cc3nc(c4c5[nH]c(cc6nc(cc1[nH]2)C(C)=C6CC)c(C)c5C(=O)[C@@H]4C(=O)OC)[C@@H](CCC(=O)ON1C(=O)CCC1=O)[C@@H]3C [Pheo-succinimide ester, pheophorbide a-succinimide ester] | 6.1 ± 0.3 | 0.55 |  |  |  |  |  |  | 
Pheophorbide a [reference compound] | 5.7 ± 0.2 | 0.52 | 5.7 |  |  |  |  |  | 
Pheophorbide a-diaminobutane-polypropylene-imine Dendrimer 3.0 Complex [Pheo 16] | 4.9 ± 0.3 | 0.05 |  | 0.5 | 0.5 ± 0.3 | 4.5 | 0.47 | 50 | release of Pheo
